Laboratory results: patent publication US11358936B2, “Lysyl oxidase-like 2 inhibitors and uses thereof” (PharmAkea, Inc., priority 2015, dated 2022)
Structures can show the parent of a compound that is named as a salt.

target: human LOXL2 (Homo sapiens (Human), UniProt Q9Y4K0); test: Human LOXL2 Amine Oxidase Activity Assay (Amplex Red fluorescence); assay type: biochemical; details: concentrated conditioned media from CHO cells stably expressing human LOXL2; 2 h at 37° C. preincubation; DAP substrate; read-out: IC50
Sequence (Q9Y4K0 26-774): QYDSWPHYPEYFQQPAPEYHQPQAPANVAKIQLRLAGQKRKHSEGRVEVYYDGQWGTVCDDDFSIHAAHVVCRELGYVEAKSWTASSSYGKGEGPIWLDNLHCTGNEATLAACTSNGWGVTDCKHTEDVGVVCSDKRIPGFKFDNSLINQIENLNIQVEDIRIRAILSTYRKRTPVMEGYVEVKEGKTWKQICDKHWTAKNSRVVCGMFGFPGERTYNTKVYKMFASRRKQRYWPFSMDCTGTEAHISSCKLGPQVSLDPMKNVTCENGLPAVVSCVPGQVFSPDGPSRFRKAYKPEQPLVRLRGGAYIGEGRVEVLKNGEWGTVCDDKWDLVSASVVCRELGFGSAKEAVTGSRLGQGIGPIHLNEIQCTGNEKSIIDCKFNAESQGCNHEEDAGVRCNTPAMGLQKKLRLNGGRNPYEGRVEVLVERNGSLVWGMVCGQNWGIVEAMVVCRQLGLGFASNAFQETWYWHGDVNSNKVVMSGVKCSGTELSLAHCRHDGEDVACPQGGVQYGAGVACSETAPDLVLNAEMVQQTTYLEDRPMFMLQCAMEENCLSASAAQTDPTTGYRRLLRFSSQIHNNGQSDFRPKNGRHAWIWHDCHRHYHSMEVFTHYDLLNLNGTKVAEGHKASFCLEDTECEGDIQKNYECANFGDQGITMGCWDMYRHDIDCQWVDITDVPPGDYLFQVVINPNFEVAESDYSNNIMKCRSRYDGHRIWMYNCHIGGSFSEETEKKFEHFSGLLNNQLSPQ
Method: LOXL2 amine oxidase activity is evaluated by measuring Amplex Red fluorescence using 10-20× concentrated conditioned media from CHO cells stably expressing human LOXL2. To assay for amine oxidase activity, 10 μL of the concentrated conditioned media is incubated with 2 μL of test compound in DMSO and 73 μL Assay Buffer (50 mM Borate Buffer, pH8) for 2 h at 37° C. After the 2 h incubation, 5 μl of 10 mM 1,5-Diaminopentane (DAP) diluted in Assay Buffer and 10 μl of Amplex Red Mix (8.5 μl Assay Buffer+0.5 μl of 10 mM Amplex Red+1 μl of 500 U/ml Horseradish Peroxidase) are added and the plate mixed and immediately placed on the FlexStaion for fluorescence measurements. Fluorescence is read in kinetic mode every 2 min for 1 hour at excitation=544 and emission=590. The amine oxidase activity is calculated from the slope of the linear portion of the curve.

| Structure (SMILES) | IC50 |
| --- | --- |
| NCc1ccnc(Oc2cccc3c2ccn3CC(=O)N2CCCC(O)(C(F)(F)F)C2)c1 (single isomer, unassigned) [Compound 2-28, (R) or (S)-2-(4-((4-(Aminomethyl)pyridin-2-yl)oxy)-1H-indol-1-yl)-1-(3-hydroxy-3-(trifluoromethyl)piperidin-1-yl)ethan-1-one hydrochloride] | < 300 nM |
| NCc1cc(Oc2cccc(Oc3ccccc3)c2)nc(-c2ccc(F)cc2)c1 [Compound 3-3, (2-(4-Fluorophenyl)-6-(3-phenoxyphenoxy)pyridin-4-yl)methanamine trifluoroacetate] | 300 to 1000 nM |
| NCc1ccnc(Oc2cccc(C(=O)NCCc3ccccc3)c2)c1 [Compound 1-40, 3-((4-(Aminomethyl)pyridin-2-yl)oxy)-N-phenethylbenzamide hydrochloride] | < 300 nM |
| NCc1ccnc(Oc2cccc(C(=O)N[C@@H](CO)c3ccccc3)c2)c1 [Compound 1-36, (R)-3-((4-Aminomethyl)pyridin-2-yl)oxy)-N-(2-hydroxy-1-phenylethyl)benzamide hydrochloride] | < 300 nM |
| NCc1ccnc(Oc2cccc(C(=O)NCc3ccc(Br)cc3)c2)c1 [Compound 1-32, 3-((4-(Aminomethyl)pyridin-2-yl)oxy)-yl)-(4-bromobenzyl)benzamide hydrochloride] | < 300 nM |
| NCc1ccnc(Oc2cccc(C(=O)NCc3cnccn3)c2)c1 [Compound 1-43, 3-((4-(Aminomethyl)pyridin-2-yl)oxy)-N-(pyrazin-2-ylmethyl)benzamide hydrochloride] | < 300 nM |
| COc1ccc(Cn2cc(C)c3c(Oc4cc(CN)ccn4)cccc32)cn1 [Compound 2-14, (2-((1-((6-Methoxypyridin-3-yl)methyl)-3-methyl-1H-indol-4-yl)oxy)pyridin-4-yl)methanamine trifluoroacetate] | < 300 nM |
| NCc1ccnc(Oc2cccc(C(=O)N3CCC(O)(C(F)(F)F)C3)c2)c1 (racemic) [Compound 1-16, Racemic-(3-((4-(aminomethyl)pyridin-2-yl)oxy)phenyl)(3-hydroxy-3-(trifluoromethyl)pyrrolidin-1-yl)methanone hydrochloride] | < 300 nM |
| NCc1ccnc(-c2cccc(C(=O)Nc3ccccc3)c2)c1 [Compound 1-7, 3-(4-(Aminomethyl)pyridin-2-yl)-N-phenylbenzamide hydrochloride] | < 300 nM |
| NCc1ccnc(Oc2cccc(C(=O)Nc3ccc(Br)cc3)c2)c1 [Compound 1-25, 3-((4-(Aminomethyl)pyridin-2-yl)oxy)-N-(4-bromophenyl)benzamide hydrochloride] | < 300 nM |
| COCCNc1cc(CN)cc(Oc2cccc(Oc3ccccc3)c2)n1 [Compound 3-2, 4-(Aminomethyl)-N-(2-methoxyethyl)-6-(3-phenoxyphenoxy)pyridin-2-amine trifluoroacetate] | 300 to 1000 nM |
| CN(C(=O)Cn1ccc2c(Oc3cc(CN)ccn3)cccc21)c1ccccc1 [Compound 2-30, 2-(4-((4-(Aminomethyl)pyridin-2-yl)oxy)-1H-indol-1-yl)-N-methyl-N-phenylacetamide hydrochloride] | < 300 nM |
| NCc1ccnc(Oc2cccc(C(=O)NCc3cccc(C(=O)O)c3)c2)c1 [Compound 1-35, 3-((3-((4-Aminomethyl)pyridin-2-yl)oxy)benzamido)methyl)benzoic acid hydrochloride] | < 300 nM |
| NCc1ccnc(Oc2ccc(C(=O)NCc3ccccc3)cc2)c1 [Compound 1-14, 4-((4-(Aminomethyl)pyridin-2-yl)oxy)-N-benzylbenzamide hydrochloride] | < 300 nM |
| NCc1ccnc(OCc2cccc(C(=O)Nc3ccccc3)c2)c1 [Compound 1-45, 3-(((4-(Aminomethyl)pyridin-2-yl)oxy)methyl)-N-phenylbenzamide hydrochloride] | < 300 nM |
| NCc1ccnc(Oc2cccc(C(=O)Nc3cccc(C(F)(F)F)c3)c2)c1 [Compound 1-21, 3-((4-Aminomethyl)pyridin-2-yl)oxy)-N-(3-(trifluoromethyl)phenyl)benzamide hydrochloride] | < 300 nM |
| NCc1ccnc(O[C@H]2CCCN(C(=O)Nc3ccccc3)C2)c1 [Compound 2-39, (A)-3-((4-(Aminomethyl)pyridin-2-yl)oxy)-N-phenylpiperidine-1-carboxamide trifluoroacetate] | < 300 nM |

| Structure (SMILES) | IC50 |
| --- | --- |
| NCc1ccnc(F)c1 [Compound 4-3, 2-Fluoro-4-(aminomethyl)pyridine] | 300 to 1000 nM |
| NCc1ccnc(Oc2cccc3c2ccn3Cc2cnc(C(F)(F)F)s2)c1 [Compound 2-17, (2-((1-((2-(Trifluoromethyl)thiazol-5-yl)methyl)-1H-indol-4-yl)oxy)pyridin-4-ylmethanamine hydrochloride] | < 300 nM |
| Cn1cc(-n2ccc3c(Oc4cc(CN)ccn4)cccc32)cn1 [Compound 2-19, (2-((1-(1-Methyl-1H-pyrazol-4-yl)-1H-indol-4-yl)oxy)pyridin-4-yl)methanamine hydrochloride] | < 300 nM |
| NCc1ccnc(Oc2ccc(F)cc2)c1 [Compound 4-8, 2-(4-Fluorophenoxy)-4-(aminomethyl)pyridine] | < 300 nM |
| NCc1ccnc(Oc2cccc3[nH]ccc23)c1 [Compound 2-32, (2-((1H-Indol-4-yl)oxy)pyridin-4-yl)methanamine trifluoroacetate] | < 300 nM |
| NCc1ccnc(Cl)c1 [Compound 4-5, 2-Chloro-4-(aminomethyl)pyridine] | < 300 nM |
| NCc1ccnc(Oc2cccc3c2ccn3CC(=O)N2CCCCC2)c1 [Compound 2-27, 2-(4-((4-(Aminomethyl)pyridin-2-yl)oxy)-1H-indol-1-yl)-1-(piperidin-1-yl)ethanone hydrochloride] | < 300 nM |
| NCc1ccnc(-n2ccnc2)c1 [Compound 4-11, 2-(Imidazol-1-yl)-4-(aminomethyl)pyridine] | < 300 nM |
| NCc1ccnc(Oc2ccc(C(=O)O)cc2)c1 [Compound 2-9, 4-((4-(Aminomethyl)pyridin-2-yl)oxy)benzoic acid hydrochloride] | 300 to 1000 nM |
| N=C(N)c1cccc(CNC(=O)c2cccc(Oc3cc(CN)ccn3)c2)c1 [Compound 1-39, 3-((4-(Aminomethyl)pyridin-2-yl)oxy)-N-(3-carbamimidoylbenzyl)benzamide dihydrochloride] | < 300 nM |
| COCCNC(=O)c1ccc(-c2cc(CN)ccn2)cc1 [Compound 1-1, 4-(4-(Aminomethyl)pyridin-2-yl)-N-(2-methoxyethyl)benzamide hydrochloride] | < 300 nM |
| CCN1CCN(c2cc(CN)ccn2)CC1 [Compound 4-12, 2-(4-Ethylpiperazin-1-yl)-4-(aminomethyl)pyridine] | > 1000 nM |
| NCc1ccnc(Oc2ccccc2C(F)(F)F)c1 [Compound 4-9, 2-(2-Trifluoromethylphenoxy)-4-(aminomethyl)pyridine] | < 300 nM |
| NCc1ccnc(-c2ccc(C(=O)O)cc2)c1 [Compound 2-6, 4-(4-Aminomethyl)pyridin-2-yl)benzoic acid trifluoroacetate] | 300 to 1000 nM |
| NCc1ccnc(NC(=O)Cc2ccc(Cl)c(Cl)c2)c1 [Compound 2-43, N-(4-(Aminomethyl)pyridin-2-yl)-2-(3,4-dichlorophenyl)acetamide trifluoroacetate] | 300 to 1000 nM |
| NCc1ccnc(-c2cccc(C(=O)Nc3cc(Cl)cc4[nH]ccc34)c2)c1 [Compound 1-10, 3-(4-(Aminomethyl)pyridin-2-yl)-N-(6-chloro-1H-indol-4-yl)benzamide hydrochloride] | < 300 nM |
